Experimental data from ChEMBL document CHEMBL1141910, “Combinatorial approaches towards the discovery of new tryptase inhibitors” (Bioorg Med Chem Lett, 2005).

Experiments:
Tryptase beta-1 [1] = target: T1, Tryptase beta-1 (Homo sapiens, UniProt Q15661); experiment: Percentage inhibition against tryptase at 10 uM
Target sequence in this assay (Q15661 31-275 limits assumed): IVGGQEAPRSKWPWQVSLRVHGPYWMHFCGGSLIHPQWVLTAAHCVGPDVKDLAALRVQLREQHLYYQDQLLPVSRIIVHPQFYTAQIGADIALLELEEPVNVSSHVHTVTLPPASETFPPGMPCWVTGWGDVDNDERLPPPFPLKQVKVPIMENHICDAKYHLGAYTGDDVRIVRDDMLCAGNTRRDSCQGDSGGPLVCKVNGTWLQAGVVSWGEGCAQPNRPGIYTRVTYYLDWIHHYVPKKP

Tryptase beta-1 [2] = target: T1, Tryptase beta-1; experiment: Inhibitory concentration against tryptase
Target sequence in this assay (Q15661 whole entry): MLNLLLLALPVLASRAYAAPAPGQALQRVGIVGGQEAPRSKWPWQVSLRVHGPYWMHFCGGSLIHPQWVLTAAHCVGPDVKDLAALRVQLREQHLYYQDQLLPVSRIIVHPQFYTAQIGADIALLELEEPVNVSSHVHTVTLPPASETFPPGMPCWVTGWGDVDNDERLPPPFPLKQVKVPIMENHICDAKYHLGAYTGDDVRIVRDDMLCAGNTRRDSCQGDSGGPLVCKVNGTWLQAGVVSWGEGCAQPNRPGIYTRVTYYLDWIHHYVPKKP

N=C(N)NCC(=O)O
inhibition (Tryptase beta-1 [1]): -3%

N=C(N)NCCCCC(=O)NCCCC[C@@H]1NC(=O)[C@H](CCCCNC(=O)[C@H](CCCNC(=N)N)NC(=O)c2ccccc2)NC1=O
IC50 (Tryptase beta-1 [2]): 9.3 µM | inhibition (Tryptase beta-1 [1]): 47.5%

N=C(N)NCCCC(=O)O
inhibition (Tryptase beta-1 [1]): 8.92%

N=C(N)NCCC[C@H](NC(=O)OCc1ccccc1)C(=O)NCCCC[C@@H]1NC(=O)[C@H](CC(=O)Nc2cccc(C(=N)N)c2)NC1=O
inhibition (Tryptase beta-1 [1]): 59%

N=C(N)NCCCC(NC(=O)OCc1ccccc1)C(=O)O (configuration not stated)
inhibition (Tryptase beta-1 [1]): 1.97%

CN(CCC(=O)O)C(=N)N
inhibition (Tryptase beta-1 [1]): 2.55%

N=C(N)NCCC(=O)NCCCC[C@@H]1NC(=O)[C@H](CC(=O)Nc2cccc(C(=N)N)c2)NC1=O
IC50 (Tryptase beta-1 [2]): 23.6 µM | inhibition (Tryptase beta-1 [1]): 76.5%

N=C(N)NCCC[C@H](NC(=O)OCc1ccccc1)C(=O)NCCCC[C@@H]1NC(=O)[C@H](CC(=O)Nc2ccc(C(=N)N)cc2)NC1=O
inhibition (Tryptase beta-1 [1]): 41.6%

N=C(N)NCCC[C@H](NC(=O)OCc1ccccc1)C(=O)NCCCC[C@@H]1NC(=O)[C@H](CCCCNC(=O)[C@H](CCCN=C(N)N)NC(=O)c2ccccc2)NC1=O
inhibition (Tryptase beta-1 [1]): 43.3%

N=C(N)NCCCC(=O)NCCCC[C@@H]1NC(=O)[C@H](CCCCNC(=O)[C@H](CCCNC(=N)N)NC(=O)OCc2ccccc2)NC1=O
IC50 (Tryptase beta-1 [2]): 2.2 µM | inhibition (Tryptase beta-1 [1]): 83%

CN(CCC(=O)NCCCC[C@@H]1NC(=O)[C@H](CCCCNC(=O)CCN=C(N)N)NC1=O)C(=N)N
inhibition (Tryptase beta-1 [1]): 51.7%

N=C(N)NCCCCC(=O)NCCCC[C@@H]1NC(=O)[C@H](CCCCNC(=O)CCCNC(=N)N)NC1=O
inhibition (Tryptase beta-1 [1]): 44.4%

CN(CCC(=O)NCCCC[C@@H]1NC(=O)[C@H](CC(=O)Nc2cccc(C(=N)N)c2)NC1=O)C(=N)N
IC50 (Tryptase beta-1 [2]): 12.8 µM | inhibition (Tryptase beta-1 [1]): 62.6%

N=C(N)NCCCC(NC(=O)OCC1c2ccccc2-c2ccccc21)C(=O)NCCCC[C@@H]1NC(=O)[C@H](CC(=O)/N=C(\N)NNCCCc2ccccc2)NC1=O (some centres not stated)
inhibition (Tryptase beta-1 [1]): 49.3%

N=C(N)NCCCC(NC(=O)OCC1c2ccccc2-c2ccccc21)C(=O)NCCCC[C@@H]1NC(=O)[C@H](CC(=O)Nc2cccc(C(=N)N)c2)NC1=O (some centres not stated)
IC50 (Tryptase beta-1 [2]): 9.09 µM | inhibition (Tryptase beta-1 [1]): 62.6%

NC(N)=Nc1ccc(C(=O)NCCCC[C@@H]2NC(=O)[C@H](CCCCNC(=O)CN3CCN=C3N)NC2=O)cc1
IC50 (Tryptase beta-1 [2]): 4.4 µM

N=C(N)NCC(=O)NCCCC[C@@H]1NC(=O)[C@H](CC(=O)Nc2cccc(C(=N)N)c2)NC1=O
IC50 (Tryptase beta-1 [2]): 19.9 µM | inhibition (Tryptase beta-1 [1]): 58.6%

N=C(N)NCCC[C@H](N)C(=O)O
inhibition (Tryptase beta-1 [1]): 3.71%

N=C(N)c1ccc(C(=O)O)cc1
inhibition (Tryptase beta-1 [1]): 2.9%

N=C(N)Nc1ccc(C(=O)NCCCC[C@@H]2NC(=O)[C@H](CC(=O)Nc3cccc(C(=N)N)c3)NC2=O)cc1
inhibition (Tryptase beta-1 [1]): 47.3%

N=C(N)NCCC[C@H](NC(=O)OCc1ccccc1)C(=O)NCCCC[C@@H]1NC(=O)[C@H](CCCCNC(=O)[C@H](CCCN=C(N)N)NC(=O)OCc2ccccc2)NC1=O
IC50 (Tryptase beta-1 [2]): 4.1 µM | inhibition (Tryptase beta-1 [1]): 48.5%

N=C(N)Nc1ccc(C(=O)O)cc1
inhibition (Tryptase beta-1 [1]): 38.8%

N=C(N)Nc1ccc(C(=O)NCCCC[C@@H]2NC(=O)[C@H](CCCCNC(=O)CN3CCN=C3N)NC2=O)cc1
inhibition (Tryptase beta-1 [1]): 61.1%

N=C(N)NCCC(=O)O
inhibition (Tryptase beta-1 [1]): -6%

N=C(N)NCCCCC(=O)O
inhibition (Tryptase beta-1 [1]): 0.23%

N=C(N)NCCC[C@H](NC(=O)c1ccccc1)C(=O)NCCCC[C@@H]1NC(=O)[C@H](CCCCNC(=O)CCNC(=N)N)NC1=O
inhibition (Tryptase beta-1 [1]): 31.2%

N=C(N)NCCC[C@H](NC(=O)c1ccccc1)C(=O)NCCCC[C@@H]1NC(=O)[C@H](CC(=O)Nc2ccc(C(=N)N)cc2)NC1=O
inhibition (Tryptase beta-1 [1]): 45%

N=C(N)NCCCC(=O)NCCCC[C@@H]1NC(=O)[C@H](CCCCNC(=O)CCCNC(=N)N)NC1=O
IC50 (Tryptase beta-1 [2]): 4.7 µM | inhibition (Tryptase beta-1 [1]): 59.3%

N=C(N)NCCCC(=O)NCCCC[C@@H]1NC(=O)[C@H](CC(=O)Nc2cccc(C(=N)N)c2)NC1=O
IC50 (Tryptase beta-1 [2]): 21.3 µM | inhibition (Tryptase beta-1 [1]): 54.4%

N=C(N)c1cccc(NC(=O)C[C@@H]2NC(=O)[C@H](CCCCNC(=O)CN3CCN=C3N)NC2=O)c1
inhibition (Tryptase beta-1 [1]): 47.7%

N=C(N)NCCCC(NC(=O)OCC1c2ccccc2-c2ccccc21)C(=O)NCCCC[C@@H]1NC(=O)[C@H](CC(=O)Nc2ccc(C(=N)N)cc2)NC1=O (some centres not stated)
inhibition (Tryptase beta-1 [1]): 64.5%

N=C(N)NCCCC(NC(=O)c1ccccc1)C(=O)O (configuration not stated)
inhibition (Tryptase beta-1 [1]): 7.53%

CN(CCC(=O)NCCCC[C@@H]1NC(=O)[C@H](CCCCNC(=O)CCNC(=N)N)NC1=O)C(=N)N
IC50 (Tryptase beta-1 [2]): 5.9 µM

N=C(N)NCCC[C@H](NC(=O)c1ccccc1)C(=O)NCCCC[C@@H]1NC(=O)[C@H](CC(=O)Nc2cccc(C(=N)N)c2)NC1=O
IC50 (Tryptase beta-1 [2]): 12.4 µM | inhibition (Tryptase beta-1 [1]): 70.6%

NC1=NCCN1CC(=O)O
inhibition (Tryptase beta-1 [1]): 3.24%

N=C(N)NCCCCC(=O)NCCCC[C@@H]1NC(=O)[C@H](CCCCNC(=O)[C@H](CCCNC(=N)N)NC(=O)OCc2ccccc2)NC1=O
IC50 (Tryptase beta-1 [2]): 5.7 µM | inhibition (Tryptase beta-1 [1]): 68%

N=C(N)NNC(=O)C[C@@H]1NC(=O)[C@H](CCCCNC(=O)c2ccc(NC(=N)N)cc2)NC1=O
inhibition (Tryptase beta-1 [1]): 42.5%

N=C(N)Nc1ccc(C(=O)NCCCC[C@@H]2NC(=O)[C@H](CC(=O)Nc3ccc(C(=N)N)cc3)NC2=O)cc1
inhibition (Tryptase beta-1 [1]): 73.9%

CN(CCC(=O)NCCCC[C@@H]1NC(=O)[C@H](CCCCNC(=O)CCCN=C(N)N)NC1=O)C(=N)N
inhibition (Tryptase beta-1 [1]): 36.7%

N=C(N)NCCCC(=O)NCCCC[C@@H]1NC(=O)[C@H](CCCCNC(=O)[C@H](CCCNC(=N)N)NC(=O)c2ccccc2)NC1=O
IC50 (Tryptase beta-1 [2]): 2.4 µM | inhibition (Tryptase beta-1 [1]): 80.5%
